Laboratory results reported in paper PMC7395068, “The evolution of strategies to minimise the risk of human drug-induced liver injury (DILI) in drug discovery and development” (Archives of Toxicology, 2020).
Read-outs that look alike come from different tables or passages of the source.

Columns and labels:
hLiMTs [1] = experiment: Combined HCI (HCS) and cellular ATP 3D assay in hLiMTs; conditions: for AC50 / minimal effective concentration: Homo sapiens; for DILI prediction hLiMTs (HCS-MEC): Microtissue model structural based (HCI), combined HCS and ATP, MEC < 25 × Cmax.tot cut-off; for hLiMTs <25x Avg Cmax ATP / hLiMTs <100x Avg Cmaxu ATP: ATP endpoint; for hLiMTs <25x Avg Cmax ATP / hLiMTs <25x Avg Cmax HCS / hLiMTs <25x Avg Cmax All: cut-off <25x Avg Cmax; for hLiMTs <100x Avg Cmaxu ATP / hLiMTs <100x Avg Cmaxu HCS / hLiMTs <100x Avg Cmaxu All: cut-off <100x Avg Cmaxu; for hLiMTs <25x Avg Cmax HCS / hLiMTs <100x Avg Cmaxu HCS: HCS endpoints; for hLiMTs <25x Avg Cmax All: all endpoints (ATP and HCS); for hLiMTs Cmax max All / hLiMTs Cmax min All / hLiMTs <10 uM All / hLiMTs <100x Avg Cmaxu All: all endpoints; for hLiMTs Cmax max All: Cmax max used; for hLiMTs Cmax min All: Cmax min used; for hLiMTs <10 uM All: cut-off <10 uM
[2] = system: THLE or HepG2 cells, isolated mitochondria, BSEP; conditions: cited from earlier work
[3] = Plasma free fraction (fu) and unbound Cmax (Cmax,u); type: in vitro ADME, human; conditions: unbound plasma Cmax
Protocol: The prediction of DILI severity was evaluated further using the 3D combined HCI assays using plasma-free fraction. The majority of fu values were obtained from literature, when unavailable in-house prediction was utilised. Unbound plasma Cmax concentrations (Cmax,u) were derived by multiplying total plasma Cmax with the corresponding free fraction (fu) for each compound.

HepaRG spheroids = experiment: Combined HCI (HCS) and cellular ATP 3D assay in HepaRG spheroids; conditions: for HepaRG <25x Avg Cmax ATP / HepaRG <100x Avg Cmaxu ATP: ATP endpoint; for HepaRG <25x Avg Cmax ATP / HepaRG <25x Avg Cmax HCS / HepaRG <25x Avg Cmax All: cut-off <25x Avg Cmax; for HepaRG <100x Avg Cmaxu ATP / HepaRG <100x Avg Cmaxu HCS / HepaRG <100x Avg Cmaxu All: cut-off <100x Avg Cmaxu; for HepaRG <25x Avg Cmax HCS / HepaRG <100x Avg Cmaxu HCS: HCS endpoints; for HepaRG <25x Avg Cmax All: all endpoints (ATP and HCS); for HepaRG Cmax max All / HepaRG Cmax min All / HepaRG <10 uM All / HepaRG <100x Avg Cmaxu All: all endpoints; for HepaRG Cmax max All: Cmax max used; for HepaRG Cmax min All: Cmax min used; for HepaRG <10 uM All: cut-off <10 uM; for AC50 / minimal effective concentration: Homo sapiens; for HepaRG <25x Avg Cmax ATP / HepaRG <100x Avg Cmaxu ATP / HepaRG <25x Avg Cmax HCS / HepaRG <100x Avg Cmaxu HCS / HepaRG <25x Avg Cmax All / HepaRG Cmax max All / HepaRG Cmax min All / HepaRG <10 uM All / HepaRG <100x Avg Cmaxu All / AC50 / minimal effective concentration: HepaRG; for DILI prediction HepaRG spheroids (HCS-MEC): Microtissue model structural based (HCI), combined HCS and ATP, MEC < 25 × Cmax.tot cut-off
PHH = conditions: cited from earlier work
[4] = system: HepG2 C3A spheroid, BSEP, Glu/Gal in HepG2 cells, bioactivation; conditions: cited from earlier work
hLiMTs [5] = conditions: cited from earlier work
[6] = ref Chen 2011; cited from earlier work
[7] = system: HepG2 cells, primary human hepatocytes; conditions: In vitro Assay; ref Garside 2014; cited from earlier work
[8] = cited from earlier work
[9] = plasma free fraction; cited from earlier work
[10] = cited from earlier work; remark: listed apart in the source
[11] = system: isolated mouse liver mitochondria; conditions: In vitro Assay; ref Porceddu 2012; cited from earlier work
[12] = system: primary human hepatocytes, NIH3T3 fibroblasts, BSEP, CYP3A4; conditions: cited from earlier work
[13] = read-out: Human plasma Cmax; total plasma Cmax.tot, median of 9 literature references; cited from earlier work
[14] = Modeled in vitro assays (cytotoxicity, mitochondrial dysfunction, BSEP), ref Aleo et al. 2019
[15] = In vitro Assay, ref Proctor 2017
[16] = In vitro Assay, ref Schadt 2015

`CCN(CC)CCNC(=O)c1c(C)[nH]c(/C=C2\C(=O)Nc3ccc(F)cc32)c1C` [sunitinib] showed an AC50 (hLiMTs [1]; read-out: ATP endpoint AC50) of 400 nM, a minimal effective concentration (hLiMTs [1]; read-out: ATP endpoint MEC) of 0.347 µM and an AC50 (hLiMTs [1]; read-out: HCS endpoint AC50) of 421 nM. The minimal effective concentration (hLiMTs [1]; read-out: HCS endpoint MEC) was 0.157 µM, the “DILI prediction hLiMTs (HCS-MEC)” value (hLiMTs [1]) was “+VE (MEC < 25 × Cmax.tot cut-off)” and the “hLiMTs <25x Avg Cmax ATP” value (hLiMTs [1]) was “+ve”. The “hLiMTs <100x Avg Cmaxu ATP” value (hLiMTs [1]) was “-ve”, the “hLiMTs <25x Avg Cmax HCS” value (hLiMTs [1]) was “+ve” and the “hLiMTs <100x Avg Cmaxu HCS” value (hLiMTs [1]) was “+ve (<100x Avg Cmaxu)”. The “hLiMTs <25x Avg Cmax All” value (hLiMTs [1]) was “+ve”, the “hLiMTs Cmax max All” value (hLiMTs [1]) was “+ve” and the “hLiMTs Cmax min All” value (hLiMTs [1]) was “+ve”. For the same compound, the “hLiMTs <10 uM All” value (hLiMTs [1]) was “+ve (<10 uM)”, the “hLiMTs <100x Avg Cmaxu All” value (hLiMTs [1]) was “+ve (<100x Avg Cmaxu)” and the “Partition Hybrid HRM Score” value ([2]; In vitro Assay, ref Aleo 2019) was “-VE”. For the same compound, the “Ro2 Hybrid HRM Score” value ([2]; In vitro Assay, ref Aleo 2019) was “-VE”, the “Partition Hybrid HRM Score ≥4, Aleo (2019)” value [2, 14] was “+VE (Partition Hybrid HRM Score ≥4)” and the “Partition Hybrid HRM Score ≥8, Aleo (2019)” value [2, 14] was “-VE”. For the same compound, the “Rule of Two hybrid HRM Score ≥3, Aleo (2019)” value [2, 14] was “-VE”, the “Rule of Two hybrid HRM Score ≥8, Aleo (2019)” value [2, 14] was “-VE” and the “Human plasma Cmax,u” value [3] was 3 nM. The “HepaRG <25x Avg Cmax ATP” value (HepaRG spheroids) was “+ve”, the “HepaRG <100x Avg Cmaxu ATP” value (HepaRG spheroids) was “-ve” and the “HepaRG <25x Avg Cmax HCS” value (HepaRG spheroids) was “+ve”. For the same compound, the “HepaRG <100x Avg Cmaxu HCS” value (HepaRG spheroids) was “+ve (<100x Avg Cmaxu)”, the “HepaRG <25x Avg Cmax All” value (HepaRG spheroids) was “+ve” and the “HepaRG Cmax max All” value (HepaRG spheroids) was “+ve”. The “HepaRG Cmax min All” value (HepaRG spheroids) was “+ve”, the “HepaRG <10 uM All” value (HepaRG spheroids) was “+ve (<10 uM)” and the “HepaRG <100x Avg Cmaxu All” value (HepaRG spheroids) was “+ve (<100x Avg Cmaxu)”. The AC50 (HepaRG spheroids; read-out: ATP endpoint AC50) was 3110 nM, the minimal effective concentration (HepaRG spheroids; read-out: ATP endpoint MEC) was 1.1 µM and the AC50 (HepaRG spheroids; read-out: HCS endpoint AC50) was 1710 nM. For the same compound, the minimal effective concentration (HepaRG spheroids; read-out: HCS endpoint MEC) was 0.281 µM, the “DILI prediction HepaRG spheroids (HCS-MEC)” value (HepaRG spheroids) was “+VE (MEC < 25 × Cmax.tot cut-off)” and the “PHH/100xCmax, Proctor (2017)” value (PHH; 2D PHH, ATP, IC50 < 100 × Cmax.tot, ref Proctor et al. 2017) was “+VE (IC50 < 100 × Cmax.tot)”. The “PHH/100uM, Proctor (2017)” value (PHH; 2D PHH, ATP, IC50 threshold 100 µM, ref Proctor et al. 2017) was “+VE (IC50 threshold of 100 µM)”, the “PHH ATP <100uM” value (PHH; [15]) was “+VE (IC50 threshold of 100 µM)” and the “Bayesian Machine Learning DILI prediction, Williams (2019)” value ([4]; Bayesian modeling, ref Williams et al. 2019) was “+VE”. The “Bayesian Machine Learning” value ([4]; In vitro Assay, ref Williams 2019) was “+VE”, the “hLiMTs ATP <100uM” value (hLiMTs [5]; [15]) was “+VE (IC50 threshold of 100 µM)” and the “hLiMTs/100xCmax, Proctor (2017)” value (hLiMTs [5]; hLiMTs, ATP, IC50 < 100 × Cmax.tot, ref Proctor et al. 2017) was “+VE (IC50 < 100 × Cmax.tot)”. The “hLiMTs/100uM, Proctor (2017)” value (hLiMTs [5]; hLiMTs, ATP, IC50 threshold 100 µM, ref Proctor et al. 2017) was “+VE (IC50 threshold of 100 µM)”, the “DILI Score (FDA) (1-8)” value [6] was 8 and the “Cluster 1-6 +VE Assay” value [7] was “+VE”. For the same compound, the “DILI severity category (Chen et al. [2016])” value ([8]; LTKB DILIrank category, ref Chen et al. 2016) was “Most”, the “DILI severity category (Chen 2016)” value ([8]; human DILI classification, LTKB DILIrank, ref Chen et al. 2016) was “Most” and the DILI severity category ([8]; human DILI severity, ref Chen et al.) was “Most”. For the same compound, the “DILI +VE (5-8), DILI -VE (-4)” value ([8]; ref Chen 2016) was “+VE”, the DILI severity category ([8]; ref Chen 2016) was “vMost-DILI-Concern” and the fu [9] was 0.050. For the same compound, the “Assigned DILI category” value ([10]; Chen et al. 2016 or literature alignment, ref Chen et al. 2016) was 3, the “In vivo DILI” value ([10]; ref Aleo 2019) was “+VE” and the “In vivo DILI” value ([10]; ref Garside 2014) was “+VE”. The “In vivo DILI” value ([10]; ref Porceddu 2012) was “+VE”, the “In vivo DILI” value ([10]; ref Proctor 2017) was “+VE” and the “In vivo DILI” value ([10]; ref Williams 2019) was “+VE”. For the same compound, the “in vitro data EC2<=1x Cmax” value [11] was “+VE” and the “in vitro data EC20<=2uM” value [11] was “-VE”.
For `CCOC(=O)CN[C@@H](C(=O)N1CC[C@H]1C(=O)NCc1ccc(/C(N)=N\O)cc1)C1CCCCC1` [ximelagatran], the “DILI in vitro assay prediction, Schadt (2015)” value ([12]; BSEP & Metabolism based, ref Schadt et al. 2015) is listed as “-VE”, the “Cellular toxicity (3T3 cells)” value [12, 16] is listed as “-VE” and the “Combined Assay” value [12, 16] is listed as “-VE”. For the same compound, the “GSH adduct HML” value [12, 16] was “-VE”, the Hepatocyte cellular toxicity [12, 16] was “-VE” and the “MitoTox 3T3” value [12, 16] was “-VE”. The “TDI CYP3A4” value [12, 16] was “-VE”, the hBSEP inhibition [12, 16] was “-VE” and the minimal effective concentration (hLiMTs [1]; read-out: ATP endpoint MEC) was 61.8 µM. For the same compound, the “DILI prediction hLiMTs (HCS-MEC)” value (hLiMTs [1]) was “-VE”, the “hLiMTs <25x Avg Cmax ATP” value (hLiMTs [1]) was “-ve” and the “hLiMTs <100x Avg Cmaxu ATP” value (hLiMTs [1]) was “-ve”. For the same compound, the “hLiMTs <25x Avg Cmax HCS” value (hLiMTs [1]) was “-ve”, the “hLiMTs <100x Avg Cmaxu HCS” value (hLiMTs [1]) was “-ve” and the “hLiMTs <25x Avg Cmax All” value (hLiMTs [1]) was “-ve”. For the same compound, the “hLiMTs Cmax max All” value (hLiMTs [1]) was “-ve”, the “hLiMTs Cmax min All” value (hLiMTs [1]) was “-ve” and the “hLiMTs <10 uM All” value (hLiMTs [1]) was “-ve”. For the same compound, the “hLiMTs <100x Avg Cmaxu All” value (hLiMTs [1]) was “-ve”, the “Human plasma Cmax,u” value [3] was 80 nM and the “HepaRG <25x Avg Cmax ATP” value (HepaRG spheroids) was “-ve”. The “HepaRG <100x Avg Cmaxu ATP” value (HepaRG spheroids) was “-ve”, the “HepaRG <25x Avg Cmax HCS” value (HepaRG spheroids) was “-ve” and the “HepaRG <100x Avg Cmaxu HCS” value (HepaRG spheroids) was “-ve”. The “HepaRG <25x Avg Cmax All” value (HepaRG spheroids) was “-ve”, the “HepaRG Cmax max All” value (HepaRG spheroids) was “-ve” and the “HepaRG Cmax min All” value (HepaRG spheroids) was “-ve”. The “HepaRG <10 uM All” value (HepaRG spheroids) was “-ve”, the “HepaRG <100x Avg Cmaxu All” value (HepaRG spheroids) was “-ve” and the minimal effective concentration (HepaRG spheroids; read-out: ATP endpoint MEC) was 149 µM. The minimal effective concentration (HepaRG spheroids; read-out: HCS endpoint MEC) was 133 µM, the “DILI prediction HepaRG spheroids (HCS-MEC)” value (HepaRG spheroids) was “-VE” and the Cmax [13] was 380 nM. The fu [9] was 0.210 and the “in vitro data EC2<=1x Cmax” value [11] was “-VE”.
